# Reference: patent US20250122191A1, “COMPOUNDS AS BCL-2 INHIBITORS” (Fochon Biosciences, Ltd, priority 2021, published 2025)
# What was measured:
# Assay type in all cases: cell-based
# [1] = tested on: RS4;11-BCL-2 D103E cells; test: Cell proliferation assay (MTS), RS4;11-BCL-2 D103E engineered cells; settings: Homo sapiens, 72 h, read-out: RS4, 11 BCL2-D103E IC50
# Outline: (§1)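 Proliferation IC50 in RS4;11 lines engineered with BCL-2 mutations, measured by MTS at 490 nm after 72 h (D103E, D103Y) or 120 h (G101V, F104L) compound treatment at 37 °C.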
# [2] = tested on: Toledo cells; test: Cell proliferation assay (MTS), Toledo cells; settings: Homo sapiens, 72 h
# Outline: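 Toledo cells (RPMI-1640, 10% FBS) seeded at 30000 cells/well, rested 4 h, then exposed 72 h at 37 °C, 5% CO2 to compound at nine final concentrations, 1.5–10000 nM. Viability by MTS (2 h), absorbance at 490 nm. IC50 from the concentration-response.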
# [3] = tested on: RS4;11-BCL-2 F104L cells; test: Cell proliferation assay (MTS), RS4;11-BCL-2 F104L engineered cells; settings: Homo sapiens, 120 h, read-out: RS4, 11 BCL2-F104L IC50
# Outline: as §1
# [4] = tested on: RS4;11-BCL-2 G101V cells; test: Cell proliferation assay (MTS), RS4;11-BCL-2 G101V engineered cells; settings: Homo sapiens, 120 h, read-out: RS4, 11 BCL2-G101V IC50
# Outline: as §1
IC50 [1],IC50 [3],IC50 [4],SMILES,IC50 [2]
1 nM,1 nM,,"COc1nc2[nH]cc(F)c2cc1Oc1cc(N2CCC3(CC2)CC(N2CCN(Cc4ccc(S(C)(=O)=O)cc4)C[C@H]2c2ccccc2C(C)C)C3)ccc1C(=O)NS(=O)(=O)c1cnc(NC[C@H]2CC[C@](C)(O)CC2)c([N+](=O)[O-])c1 [Example 327, 2-((3-fluoro-6-methoxy-1H-pyrrolo[2,3-b]pyridin-5-yl)oxy)-N-((6-((((1r,4r)-4-hydroxy-4-methylcyclohexyl)methyl)amino)-5-nitropyridin-3-yl)sulfonyl)-4-(2-((R)-2-(2-isopropylphenyl)-4-(4-(methylsulfonyl)benzyl)piperazin-1-yl)-7-azaspiro[3.5]nonan-7-yl)benzamide]",1 nM
1 nM,3 nM,1 nM,"COc1nc2[nH]cc(F)c2cc1Oc1cc(N2CCC3(CC2)CC(N2CCN(Cc4ccnc(OCCO)c4)C[C@H]2c2ccccc2C(C)C)C3)ccc1C(=O)NS(=O)(=O)c1cnc(NC[C@H]2CC[C@](C)(O)CC2)c([N+](=O)[O-])c1 [Example 64, 2-((3-fluoro-6-methoxy-1H-pyrrolo[2,3-b]pyridin-5-yl)oxy)-N-((6-((((1r,4r)-4-hydroxy-4-methylcyclohexyl)methyl)amino)-5-nitropyridin-3-yl)sulfonyl)-4-(2-((R)-4-((2-(2-hydroxyethoxy)pyridin-4-yl)methyl)-2-(2-isopropylphenyl)piperazin-1-yl)-7-azaspiro[3.5]nonan-7-yl)benzamide]",
1 nM,1 nM,1 nM,"COc1nc2[nH]cc(F)c2cc1Oc1cc(N2CCC3(CC2)CC(N2CCN(C(C)C)C[C@H]2c2ccccc2C(C)C)C3)ccc1C(=O)NS(=O)(=O)c1cnc(NC[C@H]2CC[C@](C)(O)CC2)c([N+](=O)[O-])c1 [Example 99, 2-((3-fluoro-6-methoxy-1H-pyrrolo[2,3-b]pyridin-5-yl)oxy)-N-((6-((((1r,4r)-4-hydroxy-4-methylcyclohexyl)methyl)amino)-5-nitropyridin-3-yl)sulfonyl)-4-(2-((R)-4-isopropyl-2-(2-isopropylphenyl)piperazin-1-yl)-7-azaspiro[3.5]nonan-7-yl)benzamide]",
,1 nM,1 nM,"COc1nc2[nH]cc(F)c2cc1Oc1cc(N2CCC3(CC2)CC(N2CCN(Cc4ccnc(C)c4)C[C@H]2c2ccccc2C(C)C)C3)ccc1C(=O)NS(=O)(=O)c1cnc(NC[C@H]2CC[C@](C)(O)CC2)c([N+](=O)[O-])c1 [Example 355, 2-((3-fluoro-6-methoxy-1H-pyrrolo[2,3-b]pyridin-5-yl)oxy)-N-((6-((((1r,4r)-4-hydroxy-4-methylcyclohexyl)methyl)amino)-5-nitropyridin-3-yl)sulfonyl)-4-(2-((R)-2-(2-isopropylphenyl)-4-((2-methylpyridin-4-yl)methyl)piperazin-1-yl)-7-azaspiro[3.5]nonan-7-yl)benzamide]",1 nM
1 nM,1 nM,1 nM,"COc1cc(CN2CCN(C3CC4(CCN(c5ccc(C(=O)NS(=O)(=O)c6cnc(NC[C@H]7CC[C@](C)(O)CC7)c([N+](=O)[O-])c6)c(Oc6cc7c(F)c[nH]c7nc6OC)c5)CC4)C3)[C@H](c3ccccc3C(C)C)C2)cc(F)n1 [Example 53, 2-((3-fluoro-6-methoxy-1H-pyrrolo[2,3-b]pyridin-5-yl)oxy)-4-(2-((R)-4-((2-fluoro-6-methoxypyridin-4-yl)methyl)-2-(2-isopropylphenyl)piperazin-1-yl)-7-azaspiro[3.5]nonan-7-yl)-N-((6-((((1r,4r)-4-hydroxy-4-methylcyclohexyl)methyl)amino)-5-nitropyridin-3-yl)sulfonyl)benzamide]",
,1 nM,1 nM,"CC(C)c1ccccc1[C@@H]1CN(Cc2ccc(F)cc2)CCN1C1CC2(CCN(c3ccc(C(=O)NS(=O)(=O)c4cnc(NC[C@H]5CC[C@](C)(O)CC5)c([N+](=O)[O-])c4)c(Oc4cnc5[nH]cc(F)c5c4)c3)CC2)C1 [Example 232, 2-((3-fluoro-1H-pyrrolo[2,3-b]pyridin-5-yl)oxy)-4-(2-((R)-4-(4-fluorobenzyl)-2-(2-isopropylphenyl)piperazin-1-yl)-7-azaspiro[3.5]nonan-7-yl)-N-((6-((((1r,4r)-4-hydroxy-4-methylcyclohexyl)methyl)amino)-5-nitropyridin-3-yl)sulfonyl)benzamide]",1 nM
,1 nM,1 nM,"COc1nc2[nH]cc(F)c2cc1Oc1cc(N2CCC3(CC2)CC(N2CCOC[C@H]2c2ccccc2C(C)C)C3)ccc1C(=O)NS(=O)(=O)c1cnc(NC[C@H]2CC[C@](C)(O)CC2)c([N+](=O)[O-])c1 [Example 87, 2-((3-fluoro-6-methoxy-1H-pyrrolo[2,3-b]pyridin-5-yl)oxy)-N-((6-((((1r,4r)-4-hydroxy-4-methylcyclohexyl)methyl)amino)-5-nitropyridin-3-yl)sulfonyl)-4-(2-((R)-3-(2-isopropylphenyl)morpholino)-7-azaspiro[3.5]nonan-7-yl)benzamide]",1 nM
,1 nM,1 nM,"CC(C)c1ccccc1[C@@H]1CN(Cc2ccc3c(c2)OCO3)CCN1C1CC2(CCN(c3ccc(C(=O)NS(=O)(=O)c4cnc(NC[C@H]5CC[C@](C)(O)CC5)c([N+](=O)[O-])c4)c(Oc4cnc5[nH]cc(F)c5c4)c3)CC2)C1 [Example 354, 4-(2-((R)-4-(benzo[d][1,3]dioxol-5-ylmethyl)-2-(2-isopropylphenyl)piperazin-1-yl)-7-azaspiro[3.5]nonan-7-yl)-2-((3-fluoro-1H-pyrrolo[2,3-b]pyridin-5-yl)oxy)-N-((6-((((1r,4r)-4-hydroxy-4-methylcyclohexyl)methyl)amino)-5-nitropyridin-3-yl)sulfonyl)benzamide]",1 nM
,1 nM,1 nM,"COc1nc2[nH]cc(F)c2cc1Oc1cc(N2CCC3(CC2)CC(N2CCN(Cc4ccc5c(c4)OCO5)C[C@H]2c2ccccc2C(C)C)C3)ccc1C(=O)NS(=O)(=O)c1cnc(NC[C@H]2CC[C@](C)(O)CC2)c([N+](=O)[O-])c1 [Example 353, 4-(2-((R)-4-(benzo[d][1,3]dioxol-5-ylmethyl)-2-(2-isopropylphenyl)piperazin-1-yl)-7-azaspiro [3.5]nonan-7-yl)-2-((3-fluoro-6-methoxy-1H-pyrrolo[2,3-b]pyridin-5-yl)oxy)-N-((6-((((1r,4r)-4-hydroxy-4-methylcyclohexyl)methyl)amino)-5-nitropyridin-3-yl)sulfonyl)benzamide]",1 nM
1 nM,1 nM,1 nM,"COc1cc(CN2CCN(C3CC4(CCN(c5ccc(C(=O)NS(=O)(=O)c6cnc(NC[C@H]7CC[C@](C)(O)CC7)c([N+](=O)[O-])c6)c(Oc6cc7c(F)c[nH]c7nc6OC)c5)CC4)C3)[C@H](c3ccccc3C(C)C)C2)cc(Cl)n1 [Example 54, 4-(2-((R)-4-((2-chloro-6-methoxypyridin-4-yl)methyl)-2-(2-isopropylphenyl)piperazin-1-yl)-7-azaspiro [3.5]nonan-7-yl)-2-((3-fluoro-6-methoxy-1H-pyrrolo[2,3-b]pyridin-5-yl)oxy)-N-((6-((((1r,4r)-4-hydroxy-4-methylcyclohexyl)methyl)amino)-5-nitropyridin-3-yl)sulfonyl)benzamide]",
,2 nM,1 nM,"Cc1cc(CN2CCN(C3CC4(CCN(c5ccc(C(=O)NS(=O)(=O)c6cnc(NC[C@H]7CC[C@](C)(O)CC7)c([N+](=O)[O-])c6)c(Oc6cnc7[nH]cc(F)c7c6)c5)CC4)C3)[C@H](c3ccccc3C(C)C)C2)ccn1 [Example 356, 2-((3-fluoro-1H-pyrrolo[2,3-b]pyridin-5-yl)oxy)-N-((6-((((1r,4r)-4-hydroxy-4-methylcyclohexyl)methyl)amino)-5-nitropyridin-3-yl)sulfonyl)-4-(2-((R)-2-(2-isopropylphenyl)-4-((2-methylpyridin-4-yl)methyl)piperazin-1-yl)-7-azaspiro[3.5]nonan-7-yl)benzamide]",1 nM
,1 nM,1 nM,"CCOc1nc2[nH]cc(F)c2cc1Oc1cc(N2CCC3(CC2)CC(N2CCN(Cc4ccc(OC)c5oc(C)cc45)C[C@H]2c2ccccc2C(C)C)C3)ccc1C(=O)NS(=O)(=O)c1cnc(NC[C@H]2CC[C@](C)(O)CC2)c([N+](=O)[O-])c1 [Example 14, 2-((6-ethoxy-3-fluoro-1H-pyrrolo[2,3-b]pyridin-5-yl)oxy)-N-((6-((((1r,4r)-4-hydroxy-4-methylcyclohexyl)methyl)amino)-5-nitropyridin-3-yl)sulfonyl)-4-(2-((R)-2-(2-isopropylphenyl)-4-((7-methoxy-2-methylbenzofuran-4-yl)methyl)piperazin-1-yl)-7-azaspiro[3.5]nonan-7-yl)benzamide]",1 nM
1 nM,1 nM,1 nM,"COc1cc(CN2CCN(C3CC4(CCN(c5ccc(C(=O)NS(=O)(=O)c6cnc(NC[C@H]7CC[C@](C)(O)CC7)c([N+](=O)[O-])c6)c(Oc6cc7c(F)c[nH]c7nc6OC)c5)CC4)C3)[C@H](c3ccccc3C(C)C)C2)cc(OC)n1 [Example 62, 4-(2-((R)-4-((2,6-dimethoxypyridin-4-yl)methyl)-2-(2-isopropylphenyl)piperazin-1-yl)-7-azaspiro[3.5]nonan-7-yl)-2-((3-fluoro-6-methoxy-1H-pyrrolo[2,3-b]pyridin-5-yl)oxy)-N-((6-((((1r,4r)-4-hydroxy-4-methylcyclohexyl)methyl)amino)-5-nitropyridin-3-yl)sulfonyl)benzamide]",
